Values of other authors, collected in EP4759824A1, “DANSYLAMIDE-MODIFIED COMPOUNDS TARGETING PSMA, PREPARATION METHOD THEREFOR, AND USE THEREOF” (Yantai Lannacheng Biotechnology Co., Ltd., priority 2023, dated 2025).

Test system: PSMA-positive mCRPC
Conditions: combined with SOC, mCRPC patients

Substance: lutetium Lu-177 vipivotide tetraxetan [^177Lu-PSMA-617]
- median radiographic progression-free survival (SOC alone 3.4 months): 8.7 months
- median overall survival (SOC alone 11.3 months): 15.3 months
